Laboratory results from patent publication US8841348B2, “Anti-inflammatory formulation” (AKL Inflammatory Limited, priority 2005, dated 2014).

Experiment: Applicant's clinical observation of paeonol and apocynin alone versus together
Format: in vivo
Conditions: used on their own
Source text: The applicant has noted that the effect of the combination of paeonol and apocynin together is rather better than would have been expected from studies using either of these alone.

SMILES	anti-inflammatory and/or analgesic activity
COc1cc(C(C)=O)ccc1O [apocynin, 4-hydroxy-3-methoxyacetophenone]	did not show anti-inflammatory and/or analgesic activity that could be clinically observed
COc1ccc(C(C)=O)c(O)c1 [paeonol, 2-hydroxy-4-methoxy-acetophenone]	did not show anti-inflammatory and/or analgesic activity that could be clinically observed
